According to ChEMBL document CHEMBL4818999, “Pyrido[2, 3-d]pyrimidin-7(8H)-ones as new selective orally bioavailable Threonine Tyrosine Kinase (TTK) inhibitors” (Eur J Med Chem, 2021):

Assays:
[1] = target: T1, Dual specificity protein kinase TTK (Homo sapiens, UniProt P33981); assay: Binding affinity to wild-type human partial length TTK (N505 to V798 residues) expressed in bacterial expression system by active site-directed competition binding based Kinomescan method
T1 sequence (P33981 whole entry): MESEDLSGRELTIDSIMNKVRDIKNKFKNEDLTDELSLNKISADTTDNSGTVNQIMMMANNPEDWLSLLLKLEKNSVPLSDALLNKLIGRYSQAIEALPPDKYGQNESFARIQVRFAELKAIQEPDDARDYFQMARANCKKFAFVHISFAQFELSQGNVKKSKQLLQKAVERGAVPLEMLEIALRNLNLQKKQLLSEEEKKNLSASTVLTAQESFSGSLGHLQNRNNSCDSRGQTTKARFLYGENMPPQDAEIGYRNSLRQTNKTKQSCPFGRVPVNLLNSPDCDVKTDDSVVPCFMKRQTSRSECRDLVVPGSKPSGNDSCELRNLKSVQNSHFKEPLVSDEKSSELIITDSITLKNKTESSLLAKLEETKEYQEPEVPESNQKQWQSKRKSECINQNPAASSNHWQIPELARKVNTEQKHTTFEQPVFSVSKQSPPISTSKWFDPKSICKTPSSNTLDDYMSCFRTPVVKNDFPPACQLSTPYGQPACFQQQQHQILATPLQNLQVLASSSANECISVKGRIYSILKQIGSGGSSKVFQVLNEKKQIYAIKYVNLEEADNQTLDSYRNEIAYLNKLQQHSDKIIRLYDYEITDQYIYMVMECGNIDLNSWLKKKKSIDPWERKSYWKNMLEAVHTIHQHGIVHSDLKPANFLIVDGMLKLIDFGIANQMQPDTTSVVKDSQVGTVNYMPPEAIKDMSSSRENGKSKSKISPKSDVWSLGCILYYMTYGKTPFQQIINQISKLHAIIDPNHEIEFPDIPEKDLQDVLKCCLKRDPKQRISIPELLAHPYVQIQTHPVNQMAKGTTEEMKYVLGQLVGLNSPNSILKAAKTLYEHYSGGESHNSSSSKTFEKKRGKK

[2] = target: T1, Dual specificity protein kinase TTK; assay: Inhibition of recombinant full-length human TTK using MBP as substrate incubated for 40 mins in presence of [gamma33P]ATP by scintillation counting based radiometry assay relative to control
[3] = Half life in Sprague-Dawley rat at 5 mg/kg, iv; assay type: ADME, organism-based; details: in vivo
[4] = Half life in Sprague-Dawley rat at 25 mg/kg, po; assay type: ADME, organism-based; details: in vivo
[5] = Cmax in Sprague-Dawley rat at 5 mg/kg, iv; assay type: ADME, organism-based; set-up: route intravenous, dose 5 mg/kg; details: in vivo
[6] = Cmax in Sprague-Dawley rat at 25 mg/kg, po; assay type: ADME, organism-based; set-up: route oral, dose 25 mg/kg; details: in vivo
[7] = AUC (0 to infinity) in Sprague-Dawley rat at 5 mg/kg, iv; assay type: ADME, organism-based; set-up: route intravenous, time infinity, dose 5 mg/kg; details: in vivo
[8] = AUC (0 to infinity) in Sprague-Dawley rat at 25 mg/kg, po; assay type: ADME, organism-based; set-up: time infinity, route oral, dose 25 mg/kg; details: in vivo
[9] = Clearance in Sprague-Dawley rat at 5 mg/kg, iv; assay type: ADME, organism-based; details: in vivo
[10] = Oral bioavailability in Sprague-Dawley rat at 25 mg/kg; assay type: ADME, organism-based; details: in vivo
HCT-116 = assay: Antitumor activity at human HCT-116 cells xenografted in CB17-SCID mouse assessed as tumor growth inhibition at 20 mg/kg, ip administered once weekly for 16 days relative to control; assay type: functional; details: HCT-116, ip, 384 h, time 16 day, read-out: TGI

Compound	Kd [1] [nM]	other results
COc1cc(N2CCN(C)CC2)ccc1Nc1ncc2cc(C)c(=O)n([C@H]3CC[C@@H](NC(=O)C4CCCCC4)CC3)c2n1	0.17	IC50 [2]: 20 nM; half-life [3]: 6.2 h; half-life [4]: 7.62 h; Cmax [5]: 4740 ng/mL; Cmax [6]: 2300 ng/mL; AUC(0-inf) [7]: 15500 ng·h/mL; AUC(0-inf) [8]: 33300 ng·h/mL; clearance [9]: 5.61 mL/min/kg; bioavailability [10]: 39.6%
CCC(=O)N1CCC[C@H](n2c(=O)cc(C)c3cnc(Nc4ccc(N5CCN(C)CC5)cc4OC)nc32)C1	200	
COc1cc(N2CCN(C)CC2)ccc1Nc1ncc2c(C)cc(=O)n([C@H]3CC[C@@H](NC(=O)c4ccccc4)CC3)c2n1	0.3	
CCC(=O)N1CCC(n2c(=O)cc(C)c3cnc(Nc4ccc(N5CCN(C)CC5)cc4OC)nc32)CC1	9.3	
CC(=O)O[C@H]1C(=O)[C@@]2(C)[C@H]([C@H](OC(=O)c3ccccc3)[C@]3(O)C[C@H](OC(=O)[C@H](O)[C@@H](NC(=O)c4ccccc4)c4ccccc4)C(C)=C1C3(C)C)[C@]1(OC(C)=O)CO[C@@H]1C[C@@H]2O [PACLITAXEL]		inhibition in vivo at 20 mg/kg (HCT-116): 52%
CCC(=O)N1CC[C@@H](n2c(=O)cc(C)c3cnc(Nc4ccc(N5CCN(C)CC5)cc4OC)nc32)C1	310	
COc1cc(N2CCN(C)CC2)ccc1Nc1ncc2cc(C)c(=O)n([C@H]3CC[C@@H](NC(=O)C4CCCC4)CC3)c2n1	0.17	IC50 [2]: 11 nM
CCC(=O)N1CCC[C@@H](n2c(=O)cc(C)c3cnc(Nc4ccc(N5CCN(C)CC5)cc4OC)nc32)C1	250	
COc1cc(N2CCN(C)CC2)ccc1Nc1ncc2c(C)cc(=O)n([C@H]3CC[C@@H](NC(=O)C45CC6CC(CC(C6)C4)C5)CC3)c2n1	0.56	
COc1cc(N2CCN(C)CC2)ccc1Nc1ncc2c(C)cc(=O)n([C@H]3CC[C@@H](NC(=O)c4cccc5ccccc45)CC3)c2n1	1.1	
C=CC(=O)N1CC[C@H](n2c(=O)cc(C)c3cnc(Nc4ccc(N5CCN(C)CC5)cc4OC)nc32)C1	190	
CCC(=O)N1CC(n2c(=O)cc(C)c3cnc(Nc4ccc(N5CCN(C)CC5)cc4OC)nc32)C1	> 1000	
CCC(=O)N1CC[C@H](n2c(=O)cc(C)c3cnc(Nc4ccc(N5CCN(C)CC5)cc4OC)nc32)C1	145	

Now from value to compound, other results behind:

Kd [1] [nM]	Compound	other results
0.71	CCC(=O)N[C@H]1CC[C@@H](n2c(=O)cc(C)c3cnc(Nc4ccc(N5CCN(C)CC5)cc4OC)nc32)CC1	
0.63	CCC(=O)N[C@H]1CC[C@@H](n2c(=O)cc(C)c3cnc(Nc4ccc(N5CCN(C)CC5)cc4C)nc32)CC1	
0.41	CCC(=O)N[C@H]1CC[C@@H](n2c(=O)ccc3cnc(Nc4ccc(N5CCN(C)CC5)cc4OC)nc32)CC1	
0.29	CCC(=O)N[C@H]1CC[C@@H](n2c(=O)c(C)cc3cnc(Nc4ccc(N5CCN(C)CC5)cc4OC)nc32)CC1	
0.72	COc1cc(N2CCN(C)CC2)ccc1Nc1ncc2c(C)cc(=O)n([C@H]3CC[C@@H](NC(C)=O)CC3)c2n1	
7.9	CCC(=O)N[C@H]1CC[C@@H](n2c(=O)cc(C3CC3)c3cnc(Nc4ccc(N5CCN(C)CC5)cc4OC)nc32)CC1	IC50 [2]: 50 nM
3.9	CCC(=O)N[C@H]1CC[C@@H](n2c(=O)cc(C)c3cnc(Nc4ccc(N5CCN(C)CC5)c(C)c4)nc32)CC1	
2.8	CCC(=O)N[C@H]1CC[C@H](n2c(=O)cc(C)c3cnc(Nc4ccc(N5CCN(C)CC5)cc4OC)nc32)CC1	
1.5	CCC(=O)N[C@H]1CC[C@@H](n2c(=O)cc(CC)c3cnc(Nc4ccc(N5CCN(C)CC5)cc4OC)nc32)CC1	
4.2	CCC(=O)N[C@H]1CC[C@@H](n2c(=O)cc(C)c3cnc(Nc4ccc(N5CCN(C)CC5)c(OC)c4)nc32)CC1	
0.41	COc1cc(N2CCN(C)CC2)ccc1Nc1ncc2c(C)cc(=O)n([C@H]3CC[C@@H](NC(=O)C4CC4)CC3)c2n1	
0.5	COc1cc(N2CCN(C)CC2)ccc1Nc1ncc2c(C)cc(=O)n([C@H]3CC[C@@H](NC(=O)C(C)C)CC3)c2n1	
0.2	COc1cc(N2CCN(C)CC2)ccc1Nc1ncc2c(C)cc(=O)n([C@H]3CC[C@@H](NC(=O)C(C)(C)C)CC3)c2n1	
6.1	COc1cc(N2CCN(C)CC2)ccc1Nc1ncc2c(C)cc(=O)n([C@H]3CC[C@@H](NCC4CC4)CC3)c2n1	
0.12	COc1cc(N2CCN(C)CC2)ccc1Nc1ncc2c(C)cc(=O)n([C@H]3CC[C@@H](NC(=O)C4CCCC4)CC3)c2n1	IC50 [2]: 19 nM
825	CCC(=O)N[C@H]1CC[C@@H](n2c(=O)cc(-c3ccccc3)c3cnc(Nc4ccc(N5CCN(C)CC5)cc4OC)nc32)CC1	
